The numbers were not newly measured in patent US7071337B2, “Benzoimidazole derivatives useful as antiproliferative agents” (Pfizer Inc, priority 2002, dated 2006), which cites them from elsewhere.

Data set [1] deals with transplanted human mammary carcinoma that expresses epidermal growth factor receptor tyrosine kinase (EGFR). The note with it: athymic nude mice.
Data set [2] concerns another carcinoma that does not express the EGF receptor. Conditions: athymic nude mice.

Turning to `O=CN/C=C/c1cc(O)ccc1O` [erbstatin], in data set [1], the “growth of transplanted human mammary carcinoma expressing EGFR” value is reported as “selectively attenuates the growth”. Also, the “growth of carcinoma not expressing the EGF receptor” value in data set [2] is “without effect on the growth”.
